Patent publication EP0223890B1, “Aryl derivatives of pyrrole, their obtention and their use in immunology” (Albert ROLLAND S.A. Société dite, priority 1985, dated 1987)

Experiments:
[1] = test system: cellules spléniques de souris C57BL/6J; test: rosette test in vitro (sheep red blood cells with mouse spleen cells); assay type: cell-based; conditions: for activité inhibitrice sur la formation des rosettes (comparison in words): compared with acide N-méthyl-4-(naphtoyl-1)-pyrrolyl-2-carboxylique; for activité immuno-stimulante (stimulation de la formation des rosettes): result in words
From the text: A) Activité des composés selon l'invention sur le test des rosettes in vitro
L'étude a été réalisée sur globules rouges de mouton avec des cellules spléniques de souris C57BL/6J.

[2] = test system: transformation lymphoblastique; test: lymphoblastic transformation test; assay type: cell-based; conditions: low concentration; vis-à-vis de la Concanavaline A and LPS (Lipopolysaccharides de E. Coli)
Description: B) Activité des composés selon l'invention sur le test de transformation lymphoblastique
Sur le test de transformation lymphoblastique, les composés selon l'invention montrent une activité antimitotique, aux doses allant de 5 à 50 µg/ml. […] La mise en évidence d'une activité immuno-stimulante pour certains de ces composés permet d'envisager une autre application thérapeutique.

Compound | activité inhibitrice sur la formation des rosettes (comparison in words) [1] | activité stimulante à faible concentration [2] | activité immuno-stimulante (stimulation de la formation des rosettes) [1]
Cn1cc(C(=O)c2cc([S+](C)[O-])cc3ccccc23)cc1C(=O)O (centres unmarked) [Acide N-méthyl-4-(3-méthylsulfinylnaphtoyl-1)-pyrrolyl-2-carboxylique] | activité comparable à celle de l'acide N-méthyl-4-(naphtoyl-1 )-pyrrolyl-2-carboxylique | activité stimulante | –
O=C(O)c1cc(C(=O)c2cccc3ccccc23)c[nH]1 [acide 4-(naphtoyl-1)pyrrolyl-2-carboxylique] | activité inhibitrice du même ordre que celle du dérivé N-méthylé | activité stimulante | –
Cn1cc(C(=O)c2cccc3c2C=CC(O)C3O)cc1C(=O)O (centres unmarked) [acide N-méthyl-4-(5,6-dihydroxy-5,6-dihydronaphtoyl-1)-pyrrolyl-2-carboxylique] | activité comparable à celle de l'acide N-méthyl-4-(naphtoyl-1 )-pyrrolyl-2-carboxylique | – | –
Cn1cc(C(=O)c2cccc3c(O)cccc23)cc1C(=O)O [dérivé N-méthyl-5-hydroxylé, Acide N-méthyl-4-(5-hydroxy-naphtoyl-1)-pyrrolyl-2-carboxylique] | inhibiteur à un degré identique | – | activité immuno-stimulante à faible concentration
Cn1cc(C(=O)c2cc(O)cc3ccccc23)cc1C(=O)O [dérivé N-méthyl-(3-hydroxy-naphtoyl-1), Acide N-méthyl-4-(3-hydroxy-naphtoyl-1)-pyrrolyl-2-carboxylique] | – | – | stimuler la formation des rosettes
